# Experimental data from patent US20260115122A1, “PERSONAL CARE COMPOSITIONS COMPRISING PANCRATIUM MARITIMUM” (GALDERMA HOLDING SA, priority 2022, published 2026).
# System: Normal Human Epidermal Melanocytes darkly-pigmented (NHEM-DP)
# Assay: Melanin content (melanin reduction) assay
# Type: cell-based
# Conditions: 72 h treatment, test product 0.004%, n=3, FIG. 2
# Procedure: Normal Human Epidermal Melanocytes—NHEMs-DP. Normal Human Epidermal Melanocytes darkly-pigmented (NHEM-DP; Thermo Fisher Scientific, C1025C) were grown in M254 medium (Thermo Fisher Scientific, M254500) supplemented with Human Melanocyte Growth Supplement (HMGS; Thermo Fisher Scientific, S0025) and antibiotics (Gentamycin, Thermo Fisher Scientific, 15710049). The cells were maintained in a humidified incubator at 37° C. with a 5% CO2 atmosphere.
# At the end of treatment, NHEM-DP cells (n=3) were lysed using NaOH (1N; Merck, 109956) solution. From the collected extracts, the protein content was quantified by a colorimetric assay (Pierce Coomassie Protein Assay Kit, Thermo Fischer Scientific, 23200) using a spectrophotometer (GloMax Explorer GM3500, Microplate Reader) for reading of the optical density at 600 nm. The melanin content was determined after sample heating for 1 h at 80° C. for its solubilization and reading of the optical density at 490 nm. Afterwards, the amount of melanin was determined on the basis of a standard curve using synthetic melanin (Sigma Aldrich, 8631) and then normalized to the total protein content. […]
# At the end of the treatments, intracellular melanin was extracted from cell cultures and analyzed as described in materials and methods in Example 1. […]
compound,measurement,value
O=c1cc(CO)occ1O [Kojic acid],melanin content vs untreated control,significantly decreased the melanin content
